We go through 7 molecules from article PMC7115586 (European Journal of Medicinal Chemistry, 2013).

For data set [1], the system named is a wide variety of DNA and RNA viruses. Nature of the data set: All biological tests. Format: cell-based. As to conditions: antiviral and cytostatic tests.
Data set [2] is described as follows: Solubility in methanol or water. Format: physicochemical. Conditions: insufficient to measure the 13C NMR spectrum.
Data set [3] relates to feline herpes virus (FHV). The format is cell-based. As to conditions: CRFK, read-out: EC50 against feline herpes virus.

With “3-(4-{[3-Benzoyl-2,4-dioxopyrimidin-1-yl]methyl}-1H-1,2,3-triazol-1-yl)propylphosphonic acid [Compound 31e]”, the “activity in all biological tests” value in data set [1] is “inactive”.

Consider “4-(4-{[6-Aminopurin-9-yl]methyl}-1H-1,2,3-triazol-1-yl)butylphosphonic acid [Compound 32b]”, for which the “solubility in methanol or water” value in data set [2] is recorded as “insufficient”.

For `CCOP(=O)(CCCn1cc(Cn2ccc(=O)n(C(=O)c3ccccc3)c2=O)nn1)OCC` [Compound 22m, Diethyl 3-(4-{[3-benzoyl-2,4-dioxopyrimidin-1-yl]methyl}-1H-1,2,3-triazol-1-yl)propylphosphonate], the EC50 in data set [3] was greater than 200 µM.

As for `Cn1c(=O)c2c(nc(Cl)n2Cc2cn(CCCP(=O)(O)O)nn2)n(C)c1=O` [Compound 31g, 3-{4-[(8-Chloro-1,3-dimethyl-2,6-dioxopurin-7-yl)methyl]-1H-1,2,3-triazol-1-yl}propylphosphonic acid], the “solubility in methanol or water” value in data set [2] is “insufficient”.

For `Cc1cc2ncn(Cc3cn(CCCP(=O)(O)O)nn3)c2cc1C` [Compound 31j, 3-{4-[(5,6-Dimethyl-benzimidazol-1-yl)methyl]-1H-1,2,3-triazol-1-yl}propylphosphonic acid], the “activity in all biological tests” value in data set [1] is “inactive”.

On to `Nc1ncnc2c1ncn2Cc1cn(CCCCP(=O)(O)O)nn1` [Compound 32a, 4-(4-{[6-Aminopurin-9-yl]methyl}-1H-1,2,3-triazol-1-yl)butylphosphonic acid], for which, in data set [2], the “solubility in methanol or water” value was “insufficient”.

With `Cn1c(=O)c2c(ncn2Cc2cn(CC(O)P(=O)(O)O)nn2)n(C)c1=O` (stereo not shown) [Compound 33i, 3-{4-[(1,3-Dimethyl-2,6-dioxopurin-7-yl)methyl]-1H-1,2,3-triazol-1-yl}-1-hydroxyethyphosphonic acid], the “solubility in methanol or water” value in data set [2] is recorded as “insufficient”.
